Reference: patent publication US9645134B1, “Isotopically-labeled solvents and the use of same in testing e-cigarettes” (Celerion, Inc., priority 2013, dated 2017)
Where two headings read alike, the source gives them in different places.

What was measured:
[1] = clinical study: plasma labeled and unlabeled PG by LC-MS/MS after vaporizer use or second-hand exposure; format: in vivo, human
Text: A clinical study protocol was generated. The objectives of this study were to measure C13-labeled PG in blood and to evaluate the extent of second-hand exposure to PG and nicotine during use of a commercially-available electronic nicotine delivery system (vaporizer).
All subjects completed screening procedures and checked in to the clinic on the morning of the Test Visit. All subjects remained in the clinic until the completion of the final study procedure later that day.
Following completion of check-in procedures, all subjects were seated in a room together approximately 30 minutes prior to the start of product administration. Subjects in the vaping group began using the vaporizers as directed by the clinic staff—one inhalation at least 3 seconds in duration every 30 seconds for a total of 30 inhalations. Each vaporizer contained a 1.8 v/v % nicotine solution in a PG vehicle. […]
The samples were kept at room temperature prior to centrifuge, and were centrifuged at 2500 RPM for 15 minutes at 4° C. within 60 minutes of collection. […] (+/− 10° C.) or below (within 90 minutes from collection) until analyzed by Celerion Bioanalytical Services. […]
Plasma PG (labeled and unlabeled) and nicotine were analyzed by LC-MS/MS using analytical methods with appropriate quality controls in accordance with FDA Good Laboratory Practice (GLP) regulations (Title 21 CFR Part 58). […]

[2] = tested on: rabbit; settings: cited from earlier work
[3] = in vivo; cited from earlier work

Compound: [13CH3][13CH](O)[13CH2]O (stereo not drawn) [Species A3, Propyleneglycol-^13C3]
- blood concentration of labeled propylene glycol ([1]; non-vaping subjects (Subjects 4-6), in room with vaping subjects, FIG. 2): essentially no detectable levels

Compound: OCC(O)CO [glycerol, propane-1,2,3-triol]
- acute oral toxicity LD50 ([2]; in vivo, po): 10,000 mg/kg

Compound: propane-1,2-diol [propylene glycol]
- blood concentration of unlabeled propylene glycol ([1]; all subjects (Subjects 1-6), meal high in PG at about 4 hours, FIG. 3): significant
- acute oral toxicity LD50 ([2]; oral): 18500 mg/kg
- excreted by the kidneys unchanged or as the glucuronide conjugate [3]: approximately 45%
- half-life [3]: approximately 4 hours
